Experimental findings from patent US20240109868A1, “EP300/CBP MODULATOR, PREPARATION METHOD THEREFOR AND USE THEREOF” (Miracure Biotechnology Limited, priority 2022, published 2024) are described below.

The term IC50 denotes the concentration that inhibits the measured activity by half. A lower IC50 goes with inhibition by little substance.

One assay deals with vCap Cell. Briefly: vCap cell growth inhibition, CellTiter-Glo, 72 h. It is filed as cell-based. The conditions noted are these: vCap cells, 72 h culture. Here is the method: 22RV1 or vCap cells were cultured in RPMI-1640 medium (10% fetal bovine serum and 100 units (per mL) of penicillin/streptomycin dual antibody were added to RPMI-1640) in a 37° C., 5% CO2 cell incubator. Cells at the logarithmic growth phase were inoculated onto a 96-well cell culture plate at 5×10^3 cells/100 μL/well and cultured overnight. Solutions of different concentrations of an active compound in DMSO were added, with the final concentration being 0.5% DMSO. The positive control was 1% TweeN2O, and the negative control was 0.5% DMSO. After 72 h of culture, an equal volume of CellTiter-Glo was added to each well, and the mixtures were mixed homogeneously by shaking for 2 min. The plate was let stand at room temperature for 10 min, and fluorescence signal values were read using a microplate reader. Data were analyzed using Prism 7.0 and graphs were generated. The values are shown as mean f SEM (N=2). […] The X-axis represents compound concentration (μM), and the Y-axis represents % inhibition.
A general note: ATP-based viability assays read luminescence as a measure of living cells.

A further assay deals with 22Rv1 Cell. Kind of assay: 22RV1 cell growth inhibition, CellTiter-Glo, 72 h. It is filed as cell-based. The conditions noted are these: 22RV1 cells, 72 h culture. In short, it runs like this: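 Cells seeded at 5×10^3/well overnight in RPMI-1640/10% FBS, then exposed to compound (0.5% DMSO final) for 72 h at 37 °C.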

As for `CNC(=O)N1CCc2cc(C3CCN(OC)CC3)cc(N3CCCc4cc(-c5cnn(C)c5)c(C(F)F)cc43)c2C1` [Compound M001268], the IC50 with vCap Cell (Homo sapiens, VCaP, 72 h) was < 1000 nM; in the assay on 22Rv1 Cell (Homo sapiens, 22Rv1, 72 h) it was > 1000 nM.
As for `CNC(=O)N1CCc2cc(C3CCN(CC(F)F)CC3)cc(N3CCCc4cc(-c5cnn(C)c5)c(C(F)F)cc43)c2C1` [Compound M001055], the 50% inhibitory concentration (IC50) with vCap Cell (Homo sapiens, VCaP, 72 h) is > 1000 nM; with 22Rv1 Cell (Homo sapiens, 22Rv1, 72 h) it was > 1000 nM.
Take `CNC(=O)N1CCc2cc(N3CCNCC3)cc(N3CCCc4cc(-c5cnn(C)c5)c(C(F)F)cc43)c2C1` [Compound M001044]: the half-inhibitory concentration (IC50) is > 1000 nM in the assay with vCap Cell (Homo sapiens, VCaP, 72 h) and > 1000 nM in the assay on 22Rv1 Cell (Homo sapiens, 22Rv1, 72 h).
For the compound `CC(=O)N1Cc2cc(C3CCN(C(=O)C4CCNC4)CC3)cc(N3CCCc4cc(-c5cnn(C)c5)c(C(F)F)cc43)c2C1` (stereo not shown) [Compound M001080], the 50% inhibitory concentration (IC50) was > 1000 nM in the assay with vCap Cell (Homo sapiens, VCaP, 72 h) and > 1000 nM with 22Rv1 Cell (Homo sapiens, 22Rv1, 72 h).
`CCN1CCC(c2cc3c(c(N4CCCc5cc(-c6cnn(C)c6)c(C(F)F)cc54)c2)CN(C(=O)NC)CCC3)CC1=O` (stereo not shown) [Compound M001263]: the IC50 is > 1000 nM in the assay on vCap Cell (Homo sapiens, VCaP, 72 h) and > 1000 nM with 22Rv1 Cell (Homo sapiens, 22Rv1, 72 h).
For the compound `CC(=O)N1Cc2cc([C@H]3CC[C@@H](O)CC3)cc(N3CCCc4cc(-c5cnn(C)c5)c(C(F)F)cc43)c2C1` [Compound M001195], the half-maximal inhibitory concentration (IC50) in the assay with vCap Cell (Homo sapiens, VCaP, 72 h) was < 1000 nM; with 22Rv1 Cell (Homo sapiens, 22Rv1, 72 h) it was > 1000 nM.
`CC(=O)N1Cc2cc(C3CCC(S(C)(=N)=O)CC3)cc(N3CCCc4cc(-c5cnn(C)c5)c(C(F)F)cc43)c2C1` (stereo not shown) [Compound M001327]: the IC50 in the assay with vCap Cell and in the assay with 22Rv1 Cell was > 1000 nM in each case.
`CNC(=O)N1CCc2cc([C@H]3CC[C@@H](NS(C)(=O)=O)CC3)cc(N3CCCc4cc(-c5cnn(C)c5)c(C(F)F)cc43)c2C1` [Compound M001313]: the 50% inhibitory concentration (IC50) in the assay on vCap Cell (Homo sapiens, VCaP, 72 h) is < 1000 nM; in the assay on 22Rv1 Cell (Homo sapiens, 22Rv1, 72 h), > 1000 nM.
For `CC(=O)N1Cc2cc(C3CCN(C(=O)c4cn(C)cn4)CC3)cc(N3CCCc4cc(-c5cnn(C)c5)c(C(F)F)cc43)c2C1` [Compound M001176] the same measures were < 1000 nM and < 1000 nM.
On to `CCNC(=O)N1CCc2cc(Cl)cc(N3CCCc4cc(-c5cnn(C)c5)c(C(F)F)cc43)c2C1` [Compound M001229], for which the IC50 is > 1000 nM in the assay with vCap Cell (Homo sapiens, VCaP, 72 h) and > 1000 nM in the assay with 22Rv1 Cell (Homo sapiens, 22Rv1, 72 h).
Take `CNC(=O)N1CCc2cc(C3CCN(C(C)=O)C3)cc(N3CCCc4cc(-c5cnn(C)c5)c(C(F)F)cc43)c2C1` (stereo not shown) [Compound M001054]: the IC50 in the assay on vCap Cell (Homo sapiens, VCaP, 72 h) is > 1000 nM; in the assay on 22Rv1 Cell (Homo sapiens, 22Rv1, 72 h) it was > 1000 nM.
Take `CNC(=O)N1Cc2cc(C3CC4CCC(C3)N4C)cc(N3CCCc4cc(-c5cnn(C)c5)c(C(F)F)cc43)c2C1` (stereo not shown) [Compound M001092]: the IC50 was > 1000 nM with vCap Cell (Homo sapiens, VCaP, 72 h) and > 1000 nM in the assay on 22Rv1 Cell (Homo sapiens, 22Rv1, 72 h).
As for `CNC(=O)N1CCc2cc(C3CCNC3)cc(N3CCCc4cc(-c5cnn(C)c5)c(C(F)F)cc43)c2C1` (stereo not shown) [Compound M001050], the 50% inhibitory concentration (IC50) in the assay with vCap Cell (Homo sapiens, VCaP, 72 h) was > 1000 nM; in the assay with 22Rv1 Cell (Homo sapiens, 22Rv1, 72 h) it was > 1000 nM.
`CNC(=O)N1CCc2cc(C3CCN(C)C(=O)C3)cc(N3CCCc4cc(-c5cnn(C)c5)c(C(F)F)cc43)c2C1` (stereo not shown) [Compound M001124, 8-(7-(difluoromethyl)-6-(1-methyl-1H-pyrazol-4-yl)-3,4-dihydroquinolin-1(2H)-yl)-N-methyl-6-(1-methyl-2-oxopiperidin-4-yl)-3,4H-dihydroisoquinoline-2(1H)-carboxamide]: the IC50 was < 1000 nM in the assay on vCap Cell (Homo sapiens, VCaP, 72 h) and < 1000 nM in the assay on 22Rv1 Cell (Homo sapiens, 22Rv1, 72 h).
With `CNC(=O)N1CCc2cc(C3CC4CCC(C3)N4)cc(N3CCCc4cc(-c5cnn(C)c5)c(C(F)F)cc43)c2C1` (stereo not shown) [Compound M001089], the IC50 was > 1000 nM with vCap Cell (Homo sapiens, VCaP, 72 h) and > 1000 nM in the assay on 22Rv1 Cell (Homo sapiens, 22Rv1, 72 h).
As for `CNC(=O)N1Cc2cc(C3CC4CCC(C3)N4)cc(N3CCCc4cc(-c5cnn(C)c5)c(C(F)F)cc43)c2C1` (stereo not shown) [Compound M001099], the IC50 is > 1000 nM in the assay on vCap Cell (Homo sapiens, VCaP, 72 h) and > 1000 nM with 22Rv1 Cell (Homo sapiens, 22Rv1, 72 h).
For the compound `CC(=O)N1Cc2cc(C3CC4CCC(C3)N4C)cc(N3CCCc4cc(-c5cnn(C)c5)c(C(F)F)cc43)c2C1` (stereo not shown) [Compound M001032], the IC50 in the assay with vCap Cell (Homo sapiens, VCaP, 72 h) is > 1000 nM; in the assay with 22Rv1 Cell (Homo sapiens, 22Rv1, 72 h) it was > 1000 nM.
Take `CC(=O)N1Cc2cc(C3CCN(CC(C)O)C(=O)C3)cc(N3CCCc4cc(-c5cnn(C)c5)c(C(F)F)cc43)c2C1` (stereo not shown) [Compound M001249]: the IC50 in the assay on vCap Cell and in the assay on 22Rv1 Cell was < 1000 nM in each case.
In the case of `CC(=O)N1Cc2cc(C3CCNC3)cc(N3CCCc4cc(-c5cnn(C)c5)c(C(F)F)cc43)c2C1` (stereo not shown) [Compound M001046], the IC50 was > 1000 nM in the assay with vCap Cell (Homo sapiens, VCaP, 72 h) and > 1000 nM with 22Rv1 Cell (Homo sapiens, 22Rv1, 72 h).
As to `CC(=O)N1CCc2cc(C3CCN(C)C(=O)C3)cc(N3CCCc4cc(-c5cnn(C)c5)c(C(F)F)cc43)c2C1` (stereo not shown) [Compound M001143], the IC50 in the assay with vCap Cell (Homo sapiens, VCaP, 72 h) is > 1000 nM; in the assay with 22Rv1 Cell (Homo sapiens, 22Rv1, 72 h), > 1000 nM.
Take `CNC(=O)N1CCc2cc(C3CC4CCC(C3)N4C)cc(N3CCCc4cc(-c5cnn(C)c5)c(C(F)F)cc43)c2C1` (stereo not shown) [Compound M001035]: the IC50 in the assay on vCap Cell (Homo sapiens, VCaP, 72 h) is > 1000 nM; in the assay on 22Rv1 Cell (Homo sapiens, 22Rv1, 72 h), > 1000 nM.
Regarding `CON1CCC(c2cc3c(c(N4CCCc5cc(-c6cnn(C)c6)c(C(F)F)cc54)c2)CN(C(C)=O)C3)CC1` [Compound M001269], the 50% inhibitory concentration (IC50) with vCap Cell (Homo sapiens, VCaP, 72 h) is > 1000 nM; in the assay with 22Rv1 Cell (Homo sapiens, 22Rv1, 72 h), > 1000 nM.
`CNC(=O)N1CCc2cc(CN3CCCC(C(=O)O)C3)cc(N3CCCc4cc(-c5cnn(C)c5)c(C(F)F)cc43)c2C1` (stereo not shown) [Compound M001015]: the IC50 with vCap Cell (Homo sapiens, VCaP, 72 h) was > 1000 nM; in the assay with 22Rv1 Cell (Homo sapiens, 22Rv1, 72 h), > 1000 nM.
As for `CC(=O)N1Cc2cc(C3CCN(C(=O)C(C)O)CC3)cc(N3CCCc4cc(-c5cnn(C)c5)c(C(F)F)cc43)c2C1` (stereo not shown) [Compound M001073], the IC50 with vCap Cell (Homo sapiens, VCaP, 72 h) was > 1000 nM; in the assay with 22Rv1 Cell (Homo sapiens, 22Rv1, 72 h) it was > 1000 nM.
For `CC(=O)N1Cc2cc(C3CCNCC3)cc(N3CCCc4cc(-c5cnn(C)c5)c(C(F)F)cc43)c2C1` [Compound M001040], the IC50 is > 1000 nM in the assay with vCap Cell (Homo sapiens, VCaP, 72 h) and > 1000 nM in the assay on 22Rv1 Cell (Homo sapiens, 22Rv1, 72 h).
In the case of `CC(=O)N1CCCc2cccc(N3CCCc4cc(-c5cnn(C)c5)c(C(F)F)cc43)c2C1` [Compound M001212], the IC50 in the assay with vCap Cell (Homo sapiens, VCaP, 72 h) is > 1000 nM; in the assay on 22Rv1 Cell (Homo sapiens, 22Rv1, 72 h), > 1000 nM.
For the compound `CC(=O)N1Cc2cc(C3CCN(S(=O)(=O)C4CC4)CC3)cc(N3CCCc4cc(-c5cnn(C)c5)c(C(F)F)cc43)c2C1` [Compound M001298], the IC50 with vCap Cell (Homo sapiens, VCaP, 72 h) is < 1000 nM; in the assay with 22Rv1 Cell (Homo sapiens, 22Rv1, 72 h), < 1000 nM.
For `CNC(=O)N1CCc2cc(C3CCN(S(=O)(=O)C4CC4)CC3)cc(N3CCCc4cc(-c5cnn(C)c5)c(C(F)F)cc43)c2C1` [Compound M001307], the IC50 in the assay with vCap Cell (Homo sapiens, VCaP, 72 h) is < 1000 nM; with 22Rv1 Cell (Homo sapiens, 22Rv1, 72 h), < 1000 nM.
For `CC(=O)N1Cc2cc(C3CCN(CC(F)(F)F)C(=O)C3)cc(N3CCCc4cc(-c5cnn(C)c5)c(C(F)F)cc43)c2C1` (stereo not shown) [Compound M001252], the half-inhibitory concentration (IC50) in the assay on vCap Cell (Homo sapiens, VCaP, 72 h) was < 1000 nM; in the assay on 22Rv1 Cell (Homo sapiens, 22Rv1, 72 h), < 1000 nM.
`CC(=O)N[C@H]1CC[C@H](c2cc3c(c(N4CCCc5cc(-c6cnn(C)c6)c(C(F)F)cc54)c2)CN(C(C)=O)C3)CC1` [Compound M001304]: the half-inhibitory concentration (IC50) was < 1000 nM in the assay on vCap Cell (Homo sapiens, VCaP, 72 h) and < 1000 nM in the assay with 22Rv1 Cell (Homo sapiens, 22Rv1, 72 h).
As for `CNC(=O)N1CCc2cc([C@H]3CC[C@H](O)CC3)cc(N3CCCc4cc(-c5cnn(C)c5)c(C(F)F)cc43)c2C1` [Compound M001181], the concentration for half-maximal inhibition (IC50) is > 1000 nM in the assay on vCap Cell (Homo sapiens, VCaP, 72 h) and > 1000 nM in the assay with 22Rv1 Cell (Homo sapiens, 22Rv1, 72 h).
`COC(=O)N1C2CCC1CC(c1cc3c(c(N4CCCc5cc(-c6cnn(C)c6)c(C(F)F)cc54)c1)CN(C(C)=O)C3)C2` (stereo not shown) [Compound M001132]: the IC50 with vCap Cell (Homo sapiens, VCaP, 72 h) is < 1000 nM; with 22Rv1 Cell (Homo sapiens, 22Rv1, 72 h), > 1000 nM.
